Patent US9980945B2, “Benzoisoxazole-substituted compounds as MGLUR4 allosteric potentiators, compositions, and methods of treating neurological dysfunction” (Vanderbilt University, priority 2015, dated 2018)
pEC50: −log10 of the molar value.

target: mGluR4 (UniProt Q14833); experiment: mGluR4 potentiation assay (EC50 for potentiation at EC20 agonist; fluorometric plate reader, Ca2+ or thallium dye); format: cell-based; details: potentiation of mGluR4; species of receptor not given
Method: The disclosed compounds and compositions can be evaluated for their ability to act as a potentiator of metabotropic glutamate receptor activity, in particular mGluR4 activity, by any suitable known methodology known in the art. For example, Chinese Hamster Ovary (CHO) cells transacted with human mGluR4 or HEK cells co-transfected with rat mGluR4 and the G-protein regulated Inwardly Rectifying Potassium channel (GIRK) were plated in clear bottom assay plates for assay in a Hamamatsu FDSS Fluorometric Plate Reader. The cells were loaded with either a Ca2+-sensitive fluorescent dye or the thallium responsive dye and the plates were washed and placed into a suitable kinetic plate reader. For human mGluR4 assays, a fluorescence baseline was established for 3-5 seconds, the disclosed compounds were then added to the cells, and the response in cells was measured. Approximately two and a half minutes later, a concentration of mGluR4 orthosteric agonist (e.g. glutamate or L-AP4) eliciting approximately 20% (EC20) of the maximal agonist response was added to the cells, and the response was measured. Two minutes later, a concentration of mGluR4 agonist (e.g. glutamate or L-AP4) eliciting 80% (EC80) of the maximal agonist response was added to the cells, and the response was measured. For rat mGluR4/GIRK experiments, a baseline was established for approximately five seconds, disclosed compounds were added, and either an EC20 or EC80 concentration of agonist was added approximately two and one half minutes later. Potentiation of the agonist response of mGluR4 by the disclosed compounds was observed as an increase in response to the EC20 concentration of agonist in the presence of compound compared to the response to agonist in the absence of compound. Similarly, antagonism of the agonist response of mGluR4 by the disclosed compounds was observed as a decrease in response to the EC80 concentration of agonist in the presence of compound compared to the response to agonist in the absence of compound.
The above described assay operated in two modes. In the first mode, a range of concentrations of the disclosed compounds are added to cells, followed by a single fixed concentration of agonist. If the compound acts as a potentiator, an EC50 so value for potentiation and a maximum extent of potentiation by the compound at this concentration of agonist is determined by non-linear curve fitting. If the compound acts as a noncompetitive antagonist, an IC50 value is determined by non-linear curve fitting. In the second mode, several fixed concentrations of the disclosed compounds are added to various wells on a plate, followed by a range in concentrations of agonist for each concentration of disclosed compound. The EC50 values for the agonist at each concentration of compound are determined by non-linear curve fitting. A decrease in the EC50 value of the agonist with increasing concentrations of the sample compound (a leftward shift of the agonist concentration-response curve) is an indication of the degree of mGluR4 potentiation at a given concentration of the sample compound. A decrease in the maximal response of the agonist with increasing concentrations of the sample compounds, with or without a rightward shift in agonist potency, is an indication of the degree of noncompetitive antagonism at mGluR4. The second mode also indicates whether the sample compounds also affect the maximum response to mGluR4 to agonists.

Compared with `Cn1ncc2cc(Cc3noc4cc(Nc5n[nH]c6nccnc56)ccc34)ccc21` [Example 114, 3-[(1-methylindazol-5-yl)methyl]-N-(1H-pyrazolo[3,4-b]pyrazin-3-yl)-1,2-benzoxazol-6-amine], `CCc1noc2cc(Nc3n[nH]c4nccnc34)ccc12` [Example 19, 3-ethyl-N-(1H-pyrazolo[3,4-b]pyrazin-3-yl)benzo[d]isoxazol-6-amine] is 1.49 log units lower in pEC50: 7.37 for the first, 5.88 for the second.

Compared with `O=C(Cc1noc2cc(Nc3n[nH]c4cccnc34)ccc12)N1CCCC1c1ccccn1` (stereo not shown) [Example 162], `CN(C(=O)Cc1noc2cc(Nc3n[nH]c4cccnc34)ccc12)c1cccnc1` [Example 158, N-methyl-2-[6-(1H-pyrazolo[4,3-b]pyridin-3-ylamino)-1,2-benzoxazol-3-yl]-N-(3-pyridyl)acetamide] is higher in pEC50: under 5.00 for the first, 5.93 for the second.

`CC(C)Cc1noc2cc(Nc3n[nH]c4cccnc34)ccc12` [Example 12, 3-isobutyl-N-(1H-pyrazolo[4,3-b]pyridin-3-yl)benzo[d]isoxazol-6-amine] and `CC(C)c1noc2cc(Nc3n[nH]c4cccnc34)ccc12` [Example 155, 3-isopropyl-N-(1H-pyrazolo[4,3-b]pyridin-3-yl)-1,2-benzoxazol-6-amine] are within 0.2 log units of each other in pEC50: 6.08 for the first, 6.01 for the second.

`CC(C)(C)Cc1noc2cc(Nc3n[nH]c4cccnc34)ccc12` [Example 11, 3-neopentyl-N-(1H-pyrazolo[4,3-b]pyridin-3-yl)benzo[d]isoxazol-6-amine] and `CC(C)(C)CNCc1noc2cc(Nc3n[nH]c4cccnc34)ccc12` [Example 77, 3-[(2,2-dimethylpropylamino)methyl]-N-(1H-pyrazolo[4,3-b]pyridin-3-yl)-1,2-benzoxazol-6-amine] are within 0.2 log units of each other in pEC50: 6.28 for the first, 6.27 for the second.

Going from `Fc1cncc(OCc2noc3cc(Nc4n[nH]c5cccnc45)ccc23)c1` [Example 176, 3-[(5-fluoro-3-pyridyl)oxymethyl]-N-(1H-pyrazolo[4,3-b]pyridin-3-yl)-1,2-benzoxazol-6-amine] to `c1cncc(OCc2noc3cc(Nc4n[nH]c5cccnc45)ccc23)c1` [Example 169, N-(1H-pyrazolo[4,3-b]pyridin-3-yl)-3-(3-pyridyloxymethyl)-1,2-benzoxazol-6-amine], the pEC50 falls from 6.12 to under 4.52. The first is the more potent here.

First: CCC(F)(F)c1noc2cc(Nc3n[nH]c4cccnc34)ccc12 [Example 179, 3-(1,1-difluoropropyl)-N-(1H-pyrazolo[4,3-b]pyridin-3-yl)-1,2-benzoxazol-6-amine]
Second: CCCCC(F)(F)c1noc2cc(Nc3n[nH]c4cccnc34)ccc12 [Example 136, 3-(1,1-difluoropentyl)-N-(1H-pyrazolo[4,3-b]pyridin-3-yl)-1,2-benzoxazol-6-amine]
The pEC50 of the first is higher: 5.70 for the first, under 5.00 for the second. The first is the more potent here.

First: CC(C)(C)Cc1noc2cc(Nc3n[nH]c4cccnc34)cnc12 [Example 171, 3-(2,2-dimethylpropyl)-N-(1H-pyrazolo[4,3-b]pyridin-3-yl)isoxazolo[4,5-b]pyridin-6-amine]
Second: CC(C)(C)Cc1noc2cc(Nc3n[nH]c4cccnc34)c(F)cc12 [Example 167, 3-(2,2-dimethylpropyl)-5-fluoro-N-(1H-pyrazolo[4,3-b]pyridin-3-yl)-1,2-benzoxazol-6-amine]
The pEC50 of the first is higher: 6.10 for the first, under 4.52 for the second.

First: CCCCC(F)(F)c1noc2cc(Nc3n[nH]c4ncccc34)ccc12 [Example 138, 3-(1,1-difluoropentyl)-N-(1H-pyrazolo[3,4-b]pyridin-3-yl)-1,2-benzoxazol-6-amine]
Second: CC(C)Cc1noc2cc(Nc3n[nH]c4ncccc34)ccc12 [Example 9, 3-isobutyl-N-(1H-pyrazolo[3,4-b]pyridin-3-yl)benzo[d]isoxazol-6-amine]
The pEC50 of the first is lower: under 5.00 for the first, 5.32 for the second. The second is the more potent here.

`c1cnc2c(Nc3ccc4c(OCC5CCCCO5)noc4c3)n[nH]c2c1` (stereo not shown) [Example 27, N-(1H-pyrazolo[4,3-b]pyridin-3-yl)-3-((tetrahydro-2H-pyran-2-yl)methoxy)benzo[d]isoxazole-6-amine] and `Cc1noc2cc(Nc3n[nH]c4cccnc34)ccc12` [Example 1, 3-methyl-N-(1H-pyrazolo[4,3-b]pyridin-3-yl)benzo[d]isoxazol-6-amine] are within 0.2 log units of each other in pEC50: 5.89 for the first, 5.73 for the second.

Going from `O=C(NC(c1noc2cc(Nc3n[nH]c4cccnc34)ccc12)C(F)(F)F)c1nccs1` (stereo not shown) [Example 153, N-[2,2,2-trifluoro-1-[6-(1H-pyrazolo[4,3-b]pyridin-3-ylamino)-1,2-benzoxazol-3-yl]ethyl]thiazole-carboxamide] to `CCCCNC(c1noc2cc(Nc3n[nH]c4cccnc34)ccc12)C(F)(F)F` (stereo not shown) [Example 180, 3-[1-(butylamino)-2,2,2-trifluoro-ethyl]-N-(1H-pyrazolo[4,3-b]pyridin-3-yl)-1,2-benzoxazol-6-amine; 2,2,2-trifluoroacetic acid], the pEC50 rises from 5.86 to 6.09 (0.23 log units).

Going from `FC(F)(F)CCc1noc2cc(Nc3n[nH]c4nccnc34)ccc12` [Example 100, N-(1H-pyrazolo[3,4-b]pyrazin-3-yl)-3-(3,3,3-trifluoropropyl)-1,2-benzoxazol-6-amine] to `CC(C)Cc1noc2cc(Nc3n[nH]c4nccnc34)ccc12` [Example 13, 3-isobutyl-N-(1H-pyrazolo[3,4-b]pyrazin-3-yl)benzo[d]isoxazol-6-amine], the pEC50 falls from 6.72 to 6.07 (0.65 log units). The first is the more potent here.

`CCC(CC)c1noc2cc(Nc3n[nH]c4cccnc34)ccc12` [Example 85, 3-(1-ethylpropyl)-N-(1H-pyrazolo[4,3-b]pyridin-3-yl)-1,2-benzoxazol-6-amine] and `CCCC(C)c1noc2cc(Nc3n[nH]c4cccnc34)ccc12` (stereo not shown) [Example 94, 3-(1-methylbutyl)-N-(1H-pyrazolo[4,3-b]pyridin-3-yl)-1,2-benzoxazol-6-amine] are within 0.2 log units of each other in pEC50: 6.88 for the first, 6.93 for the second.

Compared with `c1cnc2c(Nc3ccc4c(Cc5ccc6[nH]ncc6c5)noc4c3)n[nH]c2c1` [Example 33, 3-((1H-indazol-5-yl)methyl)-N-(1H-pyrazolo[4,3-b]pyridin-3-yl)benzo[d]isoxazol-6-amine], `COc1ncc(Cc2noc3cc(Nc4n[nH]c5cccnc45)ccc23)cn1` [Example 166, 3-[(2-methoxypyrimidin-5-yl)methyl]-N-(1H-pyrazolo[4,3-b]pyridin-3-yl)-1,2-benzoxazol-6-amine] is 0.95 log units lower in pEC50: 7.36 for the first, 6.41 for the second. The first is the more potent here.

`CC(C)(C)Cc1noc2cc(Nc3n[nH]c4ncccc34)cc(F)c12` [Example 148, 3-(2,2-dimethylpropyl)-4-fluoro-N-(1H-pyrazolo[3,4-b]pyridin-3-yl)-1,2-benzoxazol-6-amine] and `O=C(Cc1noc2cc(Nc3n[nH]c4ncccc34)ccc12)NC1CC(F)(F)C1` [Example 142, N-(33-difluorocyclobutyl)-2-[6-(1H pyrazolo[3,4-b]pyridin-3-ylamino)-1,2-benzoxazol-3-yl]acetamide] cannot be ordered by pEC50: under 4.52 for the first, under 5.00 for the second.

First: c1cnc2c(Nc3ccc4c(C5CCC5)noc4c3)n[nH]c2n1 [Example 4, 3-cyclobutyl-N-(1H-pyrazolo[3,4-b]pyrazin-3-yl)benzo[d]isoxazol-6-amine]
Second: O=C(NC1CC(F)(F)C1)c1noc2cc(Nc3n[nH]c4cccnc34)ccc12 [Example 29, 6-((1H-pyrazolo[4,3-b]pyridin-3-yl)amino)-N-(3,3-difluorocyclobutyl)benzo[d]isoxazole-3-carboxamide]
The pEC50 of the first is 0.43 log units lower: 6.17 for the first, 6.60 for the second. The second is the more potent here.

In the case of `O=C(c1noc2cc(Nc3n[nH]c4cccnc34)ccc12)N1CCC(F)(F)C1` [Example 30, (6-((1H-pyrazolo[4,3-b]pyridin-3-yl)amino)benzo[d]isoxazol-3-yl)(3,3-difluoropyrrolidin-1-yl)methanone], the pEC50 was under 5.00.
